Reference: PubChem BioAssay AID248 (DTP/NCI, 2004)
Where “and” joins values, the source holds several entries; their conditions need not be identical. Equal values may be shown once. Inconclusive results and toxic doses are left out.

System: L1210 leukemia ip in BDF1 mice, survival T/C
Experiment: NCI In Vivo Anticancer Drug Screen. Data for tumor model L1210 Leukemia (intraperitoneal) in B6D2F1 (BDF1) mice
Conditions: endpoint: mean survival time, higher = longer survival
How it was run: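 Tumor was transplanted into mice, which were then dosed with test compound or vehicle alone. Survival was recorded for each group, and the treated figure was expressed relative to the control figure.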

[1] = dose: 100.0 mg/kg/injection, schedule: Q01DX009 (ip), vehicle: saline with Tween-80
[2] = dose: 200.0 mg/kg/injection, schedule: Q01DX009 (ip), vehicle: saline with Tween-80
[3] = dose: 100.0 mg/kg/injection, schedule: Q04DX003 (ip), vehicle: saline with Tween-80
[4] = dose: 200.0 mg/kg/injection, schedule: Q04DX003 (ip), vehicle: saline with Tween-80

Structure (SMILES): Nc1ccc(S(=O)(=O)c2ccc(N)cn2)cc1
- T/C (dose: 50.0 mg/kg/injection, schedule: Q04DX002 (ip), vehicle: Klucel (hydroxypropylcellulose) (HPC)): 89 % of control
- T/C (dose: 100.0 mg/kg/injection, schedule: Q04DX002 (ip), vehicle: Klucel (hydroxypropylcellulose) (HPC)): 98 % of control and 107 % of control
- T/C (dose: 200.0 mg/kg/injection, schedule: Q04DX002 (ip), vehicle: Klucel (hydroxypropylcellulose) (HPC)): 96 % of control
- T/C (dose: 400.0 mg/kg/injection, schedule: Q04DX002 (ip), vehicle: Klucel (hydroxypropylcellulose) (HPC)): 96 % of control and 102 % of control

Structure (SMILES): ICC1COCC(CI)O1 (configuration not stated)
- T/C [1]: 101 % of control
- T/C [2]: 113 % of control
- T/C (dose: 400.0 mg/kg/injection, schedule: Q01DX009 (ip), vehicle: saline with Tween-80): 106 % of control

Structure (SMILES): CCOc1ccc(NC(=O)Nc2ccccc2Cl)cc1
- T/C (dose: 6.0 mg/kg/injection, schedule: Q01DX009 (ip), vehicle: Klucel (hydroxypropylcellulose) (HPC)): 93 % of control
- T/C (dose: 12.0 mg/kg/injection, schedule: Q01DX009 (ip), vehicle: Klucel (hydroxypropylcellulose) (HPC)): 88 % of control
- T/C (dose: 25.0 mg/kg/injection, schedule: Q01DX009 (ip), vehicle: Klucel (hydroxypropylcellulose) (HPC)): 97 % of control
- T/C (dose: 25.0 mg/kg/injection, schedule: Q01DX009 (ip), vehicle: gum acacia): 89 % of control
- T/C (dose: 200.0 mg/kg/injection, schedule: Q01DX009 (ip), vehicle: gum acacia): 91 % of control
- T/C (dose: 200.0 mg/kg/injection, schedule: Q04DX003 (ip), vehicle: gum acacia): 92 % of control
- T/C (dose: 400.0 mg/kg/injection, schedule: Q04DX003 (ip), vehicle: gum acacia): 90 % of control

Structure (SMILES): COc1cccnc1/C=N/NC(N)=S
- T/C (dose: 12.5 mg/kg/injection, schedule: Q01DX009 (ip), vehicle: saline with Tween-80): 150 % of control

Structure (SMILES): CCN(CC)CCn1c2ccccc2c2cnccc21
- T/C (dose: 25.0 mg/kg/injection, schedule: Q04DX003 (ip), vehicle: saline): 100 % of control
- T/C (dose: 50.0 mg/kg/injection, schedule: Q04DX003 (ip), vehicle: saline): 97 % of control

Structure (SMILES): Nc1ccc2ncsc2c1
- T/C [1]: 114 % of control
- T/C [3]: 102 % of control
- T/C [2]: 88 % of control
- T/C [4]: 95 % of control
- T/C (dose: 400.0 mg/kg/injection, schedule: Q04DX003 (ip), vehicle: saline with Tween-80): 98 % of control

Structure (SMILES): COC(=O)c1c(C)cc(OC(=O)c2c(C)cc(OC)c(C)c2OC)c(C)c1O
- T/C (dose: 50.0 mg/kg/injection, schedule: Q01DX001 (ip), vehicle: other): 103 % of control
- T/C (dose: 100.0 mg/kg/injection, schedule: Q01DX001 (ip), vehicle: other): 97 % of control
- T/C (dose: 200.0 mg/kg/injection, schedule: Q01DX001 (ip), vehicle: other): 92 % of control
- T/C (dose: 400.0 mg/kg/injection, schedule: Q01DX001 (ip), vehicle: other): 92 % of control

Structure (SMILES): CCOC(=O)c1[nH]c(C)c(CCC(=O)OC)c1C
- T/C (dose: 50.0 mg/kg/injection, schedule: Q01DX009 (ip), vehicle: Klucel (hydroxypropylcellulose) (HPC)): 103 % of control
- T/C (dose: 100.0 mg/kg/injection, schedule: Q01DX001 (ip), vehicle: Klucel (hydroxypropylcellulose) (HPC)): 95 % of control
- T/C (dose: 100.0 mg/kg/injection, schedule: Q01DX009 (ip), vehicle: Klucel (hydroxypropylcellulose) (HPC)): 107 % of control
- T/C (dose: 200.0 mg/kg/injection, schedule: Q01DX001 (ip), vehicle: Klucel (hydroxypropylcellulose) (HPC)): 93 % of control
- T/C (dose: 300.0 mg/kg/injection, schedule: Q01DX009 (ip), vehicle: Klucel (hydroxypropylcellulose) (HPC)): 100 % of control
- T/C (dose: 400.0 mg/kg/injection, schedule: Q01DX001 (ip), vehicle: Klucel (hydroxypropylcellulose) (HPC)): 95 % of control

Structure (SMILES): O=C(NCCCCCCCCCCNC(=O)Nc1ccc(C2=NCC(O)CN2)cc1)Nc1ccc(C2=NCC(O)CN2)cc1 (configuration not stated)
- T/C (dose: 4.0 mg/kg/injection, schedule: Q01DX Z (ip), vehicle: water): 117 % of control
- T/C (dose: 8.0 mg/kg/injection, schedule: Q01DX Z (ip), vehicle: water): 112 % of control
- T/C (dose: 16.0 mg/kg/injection, schedule: Q01DX Z (ip), vehicle: water): 106 % of control

Structure (SMILES): C=C1N(C)c2ccc(Cl)cc2C1(C)C
- T/C (dose: 50.0 mg/kg/injection, schedule: Q01DX009 (ip), vehicle: saline with Tween-80): 102 % of control
- T/C [1]: 98 % of control
- T/C [3]: 94 % of control
- T/C [4]: 96 % of control

Structure (SMILES): CC12CC(C(O)(C(F)(F)F)C(F)(F)F)C(=O)C=C1CCC1C2CCC2(C)C(C(=O)CC(O)(C(F)(F)F)C(F)(F)F)CCC12 (configuration not stated)
- T/C (dose: 100.0 mg/kg/injection, schedule: Q01DX001 (sc), vehicle: steriod suspending solution): 103 % of control
- T/C (dose: 200.0 mg/kg/injection, schedule: Q01DX001 (sc), vehicle: steriod suspending solution): 103 % of control
- T/C (dose: 400.0 mg/kg/injection, schedule: Q01DX001 (sc), vehicle: steriod suspending solution): 101 % of control
